Assay results: paper PMC11274643, “Design, Synthesis, Characterization, and Cytotoxicity of New Pyrazolylmethylene-2-thioxoimidazolidin-4-one Derivatives towards Androgen-Sensitive LNCaP Prostate Cancer Cells” (Biomolecules, 2024)
One block for each molecule: values may come before it.

Legend:
[1] = system: AR+LNCaP androgen-sensitive human prostate cancer cell line; assay: MTT in vitro cytotoxicity assay, 24 h incubation; format: cell-based; settings: for IC50: Homo sapiens, MTT; for Selective Index Wi38/Lncap: ratio of IC50 values
Protocol: (§1) The antitumor properties of pyrazolylmethylene-2-thioxoimidazolidin-4-one derivatives (3a–p) against androgen-sensitive (AR^+LNCaP; ATCC CRL-1740, Accession: CVCL_0395) and androgen-insensitive (AR^-PC-3; ATCC CRL-1435, Accession: CVCL_D5ZS) human prostate cancer cell lines in addition to normal human lung fibroblast cell line (Wi38, Accession: CVCL_2759) were evaluated by MTT assay. AR^+LNCaP, AR^-PC-3, and Wi38 cell lines were purchased frozen in liquid nitrogen from Egyptian Company for Production of Vaccines, Sera and Drugs, Cairo, Egypt (VACSERA). Tumor cell lines were stored as monolayer cultures in DMEM supplemented with 10% FBS and 1% penicillin–streptomycin. MTT assay was carried out as described previously in the literature. In brief, AR^+LNCaP, AR^-PC-3, and Wi38 cells were cultured into 96-well plates containing 100 µL of culture medium per each well. […] A control containing only culture medium was also applied. The assay was performed in triplicate. The cells were incubated overnight to grow at 37 °C in 5% CO2. After removing the growth medium, 100 µL of MTT (0.4 mg/mL of PBS) were added. After 24 h of incubation, the supernatant was removed and 100 µL of DMSO (Sigma Aldrich, Germany) were then added to each sample. Absorbance at 550 nm was measured. The formula (Reading of extract/Reading of negative control) × 100 was applied to calculate the viability percentage. The IC50 value of test compounds (3a–p) was also determined using CPE measurements of normal Wi38 cells (normal human lung fibroblast cells). The MTT assay was repeated with the test compounds (3i, 3k, 3o, 3j, 3p, and 3m) using the three cell types which were stimulated by 1 nM DHT after 48 h of incubation. IC50 values were estimated using Graph Pad Prism computer software (International Scientific Community, San Diego, CA, USA) from linear regression analysis of the concentration–response curves plotted for each tested compound [36].
(§2) In vitro cytotoxicity assay was performed to elucidate the antitumor properties of the synthesized derivatives of pyrazolylmethylene-2-thioxoimidazolidin-4-one. […] The cytotoxicity assay was performed using MTT assay as described in the Materials and Methods Section 2.4.1. The test compounds were dissolved in DMSO as stock solutions (<0.5% (v/v)) and stored in the dark at −20 °C. The human prostate cancer cells and normal human lung fibroblast cells were subjected to variable doses of the compounds for 24 h.

[2] = system: AR-PC-3 androgen-insensitive human prostate cancer cell line; assay: MTT in vitro cytotoxicity assay, 24 h incubation; format: cell-based; settings: for IC50: Homo sapiens, MTT; for Selective Index Wi38/PC-3: ratio of IC50 values
Protocol: as §1, §2

[3] = system: Wi38 normal human lung fibroblast cell line; assay: MTT in vitro cytotoxicity assay, 24 h incubation; format: cell-based; settings: WI-38
Protocol: as §1, §2

[4] = system: AR+LNCaP androgen-sensitive human prostate cancer cell line; assay: MTT cytotoxicity assay in presence of 1 nM DHT, 48 h incubation; format: cell-based
Protocol: as §1
(§3) The assay was performed in the presence of dihydrotestosterone (1 nM DHT) for 48 h of incubation as previously described. DHT is a potent inducer of androgens that enhances prostate cancer disease progression.

[5] = system: AR-PC-3 androgen-insensitive human prostate cancer cell line; assay: as above; format: cell-based
Protocol: as §1, §3

[6] = system: Wi38 normal human lung fibroblast cell line; assay: as above; format: cell-based; settings: WI-38, read-out: IC50 Wi38
Protocol: as §1, §3

[7] = system: active human caspase-3 in AR+LNCaP cells; assay: Detection of active Caspase 3 in AR+LNCaP cell lysates (Invitrogen Elisa kit); format: cell-based; parameters: Caspase 3 Conc. (Average): unit not given here; settings: for Caspase 3 fld / Caspase 3: LNCaP, supplement lab report; for Caspase 3 fld: fold of control; for Caspase 3 Conc. (Average): supplement ELISA read-out, average of two wells
Protocol: Untreated AR^+LNCaP and Enzalutamide-treated AR^+LNCaP were used as negative and positive controls, respectively. AR^+LNCaP cells were cultured in 96-well plates at a cell density of 1 × 10^4 cells/well. Cells were then lysed with 50 µL lysis buffer/well supplemented with the Invitrogen Elisa kit for detection of active human caspase-3 (Invitrogen, Camarillo, CA, USA). Plates were frozen at −80 °C for 30 min and then thawed. The lysate was mixed with 2 Z-DEVD-R110 substrate and incubated at room temperature for 30 min. A fluorescence microplate reader (Tecan, Mainz-Kastel, Germany), was used to measure fluorescence via excitation at 496 nm and emission detection at 520 nm. Values were normalized with total protein content. Active caspase 3 accumulation was determined based on standard dilution series of Human Caspase-3 samples provided with the kit. […]

AR+LNCaP cells [8] = assay: DNA content at cell cycle stages (Propidium Iodide flow cytometry); format: cell-based, human; settings: IC50 concentration, 1 nM DHT
Protocol: The amount of DNA contents of AR^+LNCaP cells stimulated with 1 nM DHT and treated with representative test compounds 3i and 3k at the different stages of the cell cycle were quantitatively evaluated as described previously. […] The Ab139418–Propidium Iodide Flow Cytometry Kit for Cell Cycle Analysis (ab139418, Abcam, Cambridge, UK) was employed for this assay following the procedures provided by the supplier.
Firstly, the ab139418-Propidium Iodide Flow Cytometry Kit for Cell Cycle Analysis (Bio vision, Boston, MA, USA) was used to quantify DNA contents at each cell cycle stage as an indicator of the cell cycle growth arrest.

AR+LNCaP cells [9] = assay: Cell apoptosis assay (Annexin V-FITC, flow cytometry); format: cell-based, human; settings: IC50 concentration, 1 nM DHT, 24 h
Protocol: Cell apoptosis assay was performed to ensure the efficacy of compounds 3i and 3k against the progression of AR^+LNCaP tumor cell growth in the presence of 1 nM DHT. Untreated AR^+LNCaP and Enzalutamide-treated AR^+LNCaP were used in this assay as negative and positive controls, respectively. AR^+LNCaP cells were precultured in 25 cm^2 flasks. Briefly, 1 nM DHT was then added to the growing cells. […] AR^+LNCaP cells were harvested and fixed with 70% (v/v) ethanol in FBS (Sigma-Aldrich, Germany), then maintained at 4 °C overnight. The cells were resuspended in FBS containing 0.1% (v/v) Triton X-100, 40 µg/mL […], and 0.1 mg/mL RNase then incubated in a dark chamber at 37 °C for 30 min. A flow-cytometer (Becton Dickinson, San Jose, CA, USA) supplemented with an argon ion laser at a wavelength of 488 nm was used to analyze the AR^+LNCaP cell apoptotic stages. Based on the protocol described by Ozgur et al. (2003), analysis of the data was implemented using Multicycle Software (Phoenix Flow Systems, San Diego, CA, USA; http://www.phoenixflow.com/index.html).
The active compounds 3i and 3k were further analyzed to evaluate their antitumor properties against the growth of the AR^+LNCaP prostate cancer cell line. […] Untreated AR^+LNCaP cells and Enzalutamide reference drug were also used as negative and positive controls in this assay, respectively.

melting point: 186 to 188 °C
SMILES: O=C1NC(=S)NC1=Cc1cn(-c2ccccc2)nc1-c1ccc(F)cc1 [Compound 3a, 5-((3-(4-Fluorophenyl)-1-phenyl-1H-pyrazol-4-yl)methylene)-2-thioxoimidazolidin-4-one]
IC50 [1]: 26.57 ± 0.04 µM
Selective Index Wi38/Lncap [1]: 2.4
IC50 [2]: 16.8 ± 0.34 µM
Selective Index Wi38/PC-3 [2]: 3.8
IC50 [3]: 63.27 ± 0.18 µM

melting point: 183 to 184 °C
SMILES: O=C1NC(=S)NC1=Cc1cn(-c2ccccc2)nc1-c1ccc(Cl)cc1 [Compound 3b, 5-((3-(4-Chlorophenyl)-1-phenyl-1H-pyrazol-4-yl)methylene)-2-thioxoimidazolidin-4-one]
IC50 [1]: 20.79 ± 0.06 µM
Selective Index Wi38/Lncap [1]: 1.0
IC50 [2]: 21.92 ± 0.12 µM
Selective Index Wi38/PC-3 [2]: 0.9
IC50 [3]: 24.26 ± 0.06 µM

melting point: 193 to 195 °C
SMILES: O=C1NC(=S)NC1=Cc1cn(-c2ccccc2)nc1-c1ccc(Br)cc1 [Compound 3c, 5-((3-(4-Bromophenyl)-1-phenyl-1H-pyrazol-4-yl)methylene)-2-thioxoimidazolidin-4-one]
IC50 [1]: 110 ± 2.06 µM
Selective Index Wi38/Lncap [1]: 0.8
IC50 [2]: 20.9 ± 1.12 µM
Selective Index Wi38/PC-3 [2]: 4.2
IC50 [3]: 87.9 ± 2.96 µM

melting point: 183 to 185 °C
SMILES: O=C1NC(=S)NC1=Cc1cn(-c2ccccc2)nc1-c1ccc(C(F)(F)F)cc1 [Compound 3d, 5-((1-Phenyl-3-(4-(trifluoromethyl)phenyl)-1H-pyrazol-4-yl)methylene)-2-thioxoimidazolidin-4-one]
IC50 [1]: 23.5 ± 0.74 µM
Selective Index Wi38/Lncap [1]: 2.0
IC50 [2]: 177.2 ± 0.61 µM
Selective Index Wi38/PC-3 [2]: 0.3
IC50 [3]: 48.19 ± 0.21 µM

melting point: 168 to 179 °C
SMILES: O=C1NC(=S)NC1=Cc1cn(-c2ccccc2)nc1-c1ccccc1 [Compound 3e, 5-((1,3-Diphenyl-1H-pyrazol-4-yl)methylene)-2-thioxoimidazolidin-4-one]
IC50 [1]: 33.9 ± 0.12 µM
Selective Index Wi38/Lncap [1]: 1.9
IC50 [2]: 20.1 ± 0.21 µM
Selective Index Wi38/PC-3 [2]: 3.2
IC50 [3]: 63.24 ± 0.26 µM

melting point: 189 to 191 °C
SMILES: Cc1ccc(-c2nn(-c3ccccc3)cc2C=C2NC(=S)NC2=O)cc1 [Compound 3f, 5-((1-Phenyl-3-(p-tolyl)-1H-pyrazol-4-yl)methylene)-2-thioxoimidazolidin-4-one]
IC50 [1]: 54.19 ± 0.11 µM
Selective Index Wi38/Lncap [1]: 1.0
IC50 [2]: 20.19 ± 0.04 µM
Selective Index Wi38/PC-3 [2]: 2.8
IC50 [3]: 56.56 ± 0.14 µM

melting point: 195 to 197 °C
SMILES: Nc1ccc(-c2nn(-c3ccccc3)cc2C=C2NC(=S)NC2=O)cc1 [Compound 3g, 5-((3-(4-Aminophenyl)-1-phenyl-1H-pyrazol-4-yl)methylene)-2-thioxoimidazolidin-4-one]
IC50 [1]: 47.31 ± 0.18 µM
Selective Index Wi38/Lncap [1]: 1.2
IC50 [2]: 26.8 ± 0.39 µM
Selective Index Wi38/PC-3 [2]: 2.1
IC50 [3]: 56.62 ± 0.16 µM

melting point: 178 to 179 °C
SMILES: O=C1NC(=S)NC1=Cc1cn(-c2ccc(F)cc2)nc1-c1ccc(F)cc1 [Compound 3h, 5-((1,3-Bis(4-fluorophenyl)-1H-pyrazol-4-yl)methylene)-2-thioxoimidazolidin-4-one]
IC50 [1]: 19.48 ± 0.05 µM
Selective Index Wi38/Lncap [1]: 1.0
IC50 [2]: 18.8 ± 0.14 µM
Selective Index Wi38/PC-3 [2]: 1.0
IC50 [3]: 20.96 ± 0.13 µM

melting point: 199 to 201 °C
SMILES: O=C1NC(=S)NC1=Cc1cn(-c2ccc(F)cc2)nc1-c1ccc(Br)cc1 [Compound 3j, 5-((3-(4-Bromophenyl)-1-(4-fluorophenyl)-1H-pyrazol-4-yl)methylene)-2-thioxoimidazolidin-4-one]
IC50 [1]: 13.9 ± 0.14 µM
Selective Index Wi38/Lncap [1]: 2.2
IC50 [2]: 24.44 ± 0.12 µM
Selective Index Wi38/PC-3 [2]: 1.5
IC50 [3]: 31.18 ± 0.16 µM
IC50 ([4]; Homo sapiens): 7.72 ± 0.15 µM
Selectivity AR-/AR+ ([4]; IC50 PC-3 / IC50 LNCaP): 1.8
IC50 [5]: 14.2 ± 0.15 µM
CC50 [6]: 21.08 ± 0.06 µM
active Caspase 3 fold change compared to untreated cells ([7]; IC50 concentration, 1 nM DHT, AR+LNCaP lysate): 4.2 fold
induction of active caspase 3 as a percentage of the reference drug Enzalutamide ([7]; IC50 concentration, AR+LNCaP): 63.0%
Caspase 3 fld [7]: 4.115
Caspase 3 [7]: 316.5 pg/mL
Caspase 3 Conc. (Average) [7]: 316.5

melting point: 189 to 191 °C
SMILES: O=C1NC(=S)NC1=Cc1cn(-c2ccc(F)cc2)nc1-c1ccccc1 [Compound 3l, 5-((1-(4-Fluorophenyl)-3-phenyl-1H-pyrazol-4-yl)methylene)-2-thioxoimidazolidin-4-one]
IC50 [1]: 20.8 ± 0.04 µM
Selective Index Wi38/Lncap [1]: 1.3
IC50 [2]: 15.3 ± 0.04 µM
Selective Index Wi38/PC-3 [2]: 1.8
IC50 [3]: 26.81 ± 0.06 µM

melting point: 179 to 181 °C
SMILES: COc1ccc(-c2nn(-c3ccc(F)cc3)cc2C=C2NC(=S)NC2=O)cc1 [Compound 3n, 5-((1-(4-Fluorophenyl)-3-(4-methoxyphenyl)-1H-pyrazol-4-yl)methylene)-2-thioxoimidazolidin-4-one]
IC50 [1]: 15.02 ± 0.15 µM
Selective Index Wi38/Lncap [1]: 1.8
IC50 [2]: 23.25 ± 0.08 µM
Selective Index Wi38/PC-3 [2]: 1.2
IC50 [3]: 26.93 ± 0.09 µM

SMILES: COc1cccc2c1C(=O)c1c(O)c3c(c(O)c1C2=O)C[C@@](O)(C(=O)CO)C[C@@H]3O[C@H]1C[C@H](N)[C@H](O)[C@H](C)O1 [Doxorubicin, reference compound]
IC50 [1]: 11.4 ± 0.16 µM
Selective Index Wi38/Lncap [1]: 1.3
IC50 [2]: 10 ± 0.18 µM
Selective Index Wi38/PC-3 [2]: 1.5
IC50 [3]: 15.14 ± 0.12 µM

SMILES: CNC(=O)c1ccc(N2C(=S)N(c3ccc(C#N)c(C(F)(F)F)c3)C(=O)C2(C)C)cc1F [Enzalutamide, reference compound]
Caspase 3 fld [7]: 6.923
Caspase 3 [7]: 532.4 pg/mL
Caspase 3 Conc. (Average) [7]: 532.4
DNA Content (%) G0–G1 (AR+LNCaP cells [8]): 61.02%
DNA Content (%) G2/M (AR+LNCaP cells [8]): 25.37%
Early Apoptosis (%) (AR+LNCaP cells [9]): 9.46%
Late Apoptosis (%) (AR+LNCaP cells [9]): 21.27%
Necrotic Cells (%) (AR+LNCaP cells [9]): 3.13%
Total Apoptosis (%) (AR+LNCaP cells [9]): 33.86%
